Test results from the NIST ThermoML archive (doi:10.1021/je700321s).
± gives the expanded uncertainty stated by the source.

Experiment: xn = mol fraction of the nth substance listed
Conditions: Liquid, Vibrating tube method

CC(C)O [propan-2-ol] + O=C=O
Conditions | mass density [kg/m3]
313.08 K, 10061 kPa, x2 = 0.7943 | 800.9 ± 0.8
313.08 K, 10515 kPa, x2 = 0.7943 | 804 ± 0.8
313.08 K, 11013 kPa, x2 = 0.7943 | 807.3 ± 0.8
313.08 K, 11507 kPa, x2 = 0.7943 | 810.6 ± 0.9
313.08 K, 11994 kPa, x2 = 0.7943 | 813.5 ± 0.9
313.08 K, 12199 kPa, x2 = 0.7943 | 814.6 ± 0.9
313.08 K, 12410 kPa, x2 = 0.7943 | 815.6 ± 0.9
313.08 K, 12606 kPa, x2 = 0.7943 | 816.7 ± 0.9
313.09 K, 2502 kPa, x2 = 0.139 | 781.7 ± 0.8
313.09 K, 3002 kPa, x2 = 0.139 | 782.3 ± 0.8
313.09 K, 3513 kPa, x2 = 0.139 | 782.9 ± 0.8
313.09 K, 4008 kPa, x2 = 0.139 | 783.5 ± 0.8
313.09 K, 4501 kPa, x2 = 0.139 | 784.1 ± 0.8
313.09 K, 5001 kPa, x2 = 0.139 | 784.7 ± 0.8
313.09 K, 5497 kPa, x2 = 0.139 | 785.3 ± 0.8
313.09 K, 6023 kPa, x2 = 0.139 | 785.9 ± 0.8
313.09 K, 6504 kPa, x2 = 0.139 | 786.5 ± 0.8
313.09 K, 7026 kPa, x2 = 0.139 | 787.1 ± 0.8
313.09 K, 7489 kPa, x2 = 0.139 | 787.6 ± 0.8
313.09 K, 7960 kPa, x2 = 0.9492 | 642.1 ± 2.7
313.09 K, 7998 kPa, x2 = 0.139 | 788.2 ± 0.8
313.09 K, 8001 kPa, x2 = 0.9492 | 648.3 ± 2.8
313.09 K, 8200 kPa, x2 = 0.9492 | 666.4 ± 2.7
313.09 K, 8400 kPa, x2 = 0.9492 | 677.7 ± 1.8
313.09 K, 8509 kPa, x2 = 0.139 | 788.8 ± 0.8
313.09 K, 8606 kPa, x2 = 0.9492 | 688.5 ± 1.8
313.09 K, 8803 kPa, x2 = 0.9492 | 697 ± 1
313.09 K, 8995 kPa, x2 = 0.139 | 789.3 ± 0.8
313.09 K, 9002 kPa, x2 = 0.9492 | 704 ± 1.1
313.09 K, 9201 kPa, x2 = 0.9492 | 710.9 ± 1
313.09 K, 9408 kPa, x2 = 0.9492 | 717.1 ± 1
313.09 K, 9503 kPa, x2 = 0.139 | 789.8 ± 0.8
313.09 K, 9604 kPa, x2 = 0.9492 | 722.7 ± 1
313.09 K, 9800 kPa, x2 = 0.9492 | 728.1 ± 0.9
313.09 K, 10003 kPa, x2 = 0.9492 | 733.1 ± 1
313.09 K, 10201 kPa, x2 = 0.9492 | 737.5 ± 0.9
313.09 K, 10405 kPa, x2 = 0.9492 | 741.5 ± 0.9
313.09 K, 10605 kPa, x2 = 0.9492 | 744.7 ± 0.9
313.09 K, 10803 kPa, x2 = 0.9492 | 747.4 ± 0.9
313.1 K, 3601 kPa, x2 = 0.2003 | 786.8 ± 0.8
313.1 K, 4007 kPa, x2 = 0.2003 | 787.4 ± 0.8
313.1 K, 4523 kPa, x2 = 0.2003 | 788.1 ± 0.8
313.1 K, 5069 kPa, x2 = 0.2003 | 788.7 ± 0.8
313.1 K, 5497 kPa, x2 = 0.2003 | 789.3 ± 0.8
313.1 K, 5812 kPa, x2 = 0.4248 | 801.4 ± 0.8
313.1 K, 6012 kPa, x2 = 0.4248 | 801.7 ± 0.8
313.1 K, 6027 kPa, x2 = 0.2003 | 790 ± 0.8
313.1 K, 6200 kPa, x2 = 0.4248 | 802.1 ± 0.8
313.1 K, 6395 kPa, x2 = 0.4248 | 802.6 ± 0.8
313.1 K, 6504 kPa, x2 = 0.2003 | 790.7 ± 0.8
313.1 K, 6602 kPa, x2 = 0.4248 | 803.1 ± 0.8
313.1 K, 6803 kPa, x2 = 0.4248 | 803.5 ± 0.8
313.1 K, 7010 kPa, x2 = 0.2003 | 791.3 ± 0.8
313.1 K, 7055 kPa, x2 = 0.4248 | 804.1 ± 0.8
313.1 K, 7208 kPa, x2 = 0.4248 | 804.3 ± 0.8
313.1 K, 7409 kPa, x2 = 0.4248 | 804.8 ± 0.8
313.1 K, 7494 kPa, x2 = 0.2003 | 791.9 ± 0.8
313.1 K, 7611 kPa, x2 = 0.4248 | 805.2 ± 0.8
313.1 K, 7802 kPa, x2 = 0.4248 | 805.7 ± 0.8
313.1 K, 7989 kPa, x2 = 0.2003 | 792.6 ± 0.8
313.1 K, 7998 kPa, x2 = 0.4248 | 806.1 ± 0.8
313.1 K, 8201 kPa, x2 = 0.4248 | 806.5 ± 0.8
313.1 K, 8557 kPa, x2 = 0.2003 | 793.2 ± 0.8
313.1 K, 8597 kPa, x2 = 0.4248 | 807.3 ± 0.8
313.1 K, 8797 kPa, x2 = 0.4248 | 807.6 ± 0.8
313.1 K, 9017 kPa, x2 = 0.2003 | 793.8 ± 0.8
313.1 K, 9024 kPa, x2 = 0.4248 | 808.1 ± 0.8
313.1 K, 9602 kPa, x2 = 0.4248 | 809.3 ± 0.8
313.1 K, 9636 kPa, x2 = 0.2003 | 794.6 ± 0.8
313.1 K, 10055 kPa, x2 = 0.4248 | 810.1 ± 0.8
313.12 K, 6801 kPa, x2 = 0.6086 | 802.8 ± 0.8
313.12 K, 7000 kPa, x2 = 0.6086 | 803.5 ± 0.8
313.12 K, 7203 kPa, x2 = 0.6086 | 804.4 ± 0.8
313.12 K, 7402 kPa, x2 = 0.6086 | 805.2 ± 0.8
313.12 K, 7602 kPa, x2 = 0.6086 | 806 ± 0.8
313.12 K, 7804 kPa, x2 = 0.6086 | 806.8 ± 0.8
313.12 K, 8010 kPa, x2 = 0.6086 | 807.7 ± 0.8
313.12 K, 8124 kPa, x2 = 0.9715 | 526.2 ± 2.6
313.12 K, 8197 kPa, x2 = 0.6086 | 808.3 ± 0.8
313.12 K, 8400 kPa, x2 = 0.6086 | 809.1 ± 0.8
313.12 K, 8526 kPa, x2 = 0.9715 | 627.3 ± 2.1
313.12 K, 8602 kPa, x2 = 0.6086 | 809.8 ± 0.8
313.12 K, 8812 kPa, x2 = 0.6086 | 810.5 ± 0.8
313.12 K, 9000 kPa, x2 = 0.6086 | 811.3 ± 0.8
313.12 K, 9002 kPa, x2 = 0.9715 | 662.5 ± 1.7
313.12 K, 9213 kPa, x2 = 0.6086 | 812 ± 0.8
313.12 K, 9392 kPa, x2 = 0.6086 | 812.6 ± 0.8
313.12 K, 9522 kPa, x2 = 0.9715 | 689 ± 1.4
313.12 K, 9600 kPa, x2 = 0.6086 | 813.3 ± 0.8
313.12 K, 9802 kPa, x2 = 0.6086 | 814 ± 0.8
313.12 K, 10001 kPa, x2 = 0.6086 | 814.6 ± 0.8
313.12 K, 10021 kPa, x2 = 0.9715 | 708.1 ± 1.2
313.12 K, 10520 kPa, x2 = 0.9715 | 722.7 ± 1
313.12 K, 10993 kPa, x2 = 0.9715 | 734.9 ± 1
313.12 K, 11514 kPa, x2 = 0.9715 | 746.8 ± 0.9
313.12 K, 12038 kPa, x2 = 0.9715 | 757.3 ± 0.9
313.12 K, 12512 kPa, x2 = 0.9715 | 765.8 ± 0.9
313.12 K, 13003 kPa, x2 = 0.9715 | 773.6 ± 0.9
313.12 K, 13500 kPa, x2 = 0.9715 | 781.1 ± 0.9
313.12 K, 13998 kPa, x2 = 0.9715 | 788.2 ± 0.9
313.12 K, 14495 kPa, x2 = 0.9715 | 794.8 ± 0.9
313.12 K, 15008 kPa, x2 = 0.9715 | 801.1 ± 0.9
323.03 K, 6842 kPa, x2 = 0.4248 | 786.9 ± 0.8
323.03 K, 7010 kPa, x2 = 0.4248 | 787.3 ± 0.8
323.03 K, 7302 kPa, x2 = 0.4248 | 788.1 ± 0.8
323.03 K, 7530 kPa, x2 = 0.4248 | 788.6 ± 0.8
323.03 K, 8004 kPa, x2 = 0.4248 | 789.7 ± 0.8
323.03 K, 8302 kPa, x2 = 0.4248 | 790.4 ± 0.8
323.03 K, 8401 kPa, x2 = 0.4248 | 790.6 ± 0.8
323.03 K, 8500 kPa, x2 = 0.4248 | 790.8 ± 0.8
323.03 K, 8603 kPa, x2 = 0.4248 | 791.2 ± 0.8
323.03 K, 8710 kPa, x2 = 0.4248 | 791.4 ± 0.8
323.03 K, 8821 kPa, x2 = 0.4248 | 791.7 ± 0.8
323.03 K, 9000 kPa, x2 = 0.4248 | 792.1 ± 0.8
323.03 K, 9209 kPa, x2 = 0.4248 | 792.5 ± 0.8
323.03 K, 9309 kPa, x2 = 0.4248 | 792.8 ± 0.8
323.03 K, 9401 kPa, x2 = 0.4248 | 793.1 ± 0.8
323.03 K, 9502 kPa, x2 = 0.4248 | 793.3 ± 0.8
323.03 K, 9601 kPa, x2 = 0.4248 | 793.4 ± 0.8
323.03 K, 9728 kPa, x2 = 0.4248 | 793.7 ± 0.8
323.05 K, 2995 kPa, x2 = 0.139 | 771.3 ± 0.8
323.05 K, 3503 kPa, x2 = 0.139 | 771.9 ± 0.8
323.05 K, 4003 kPa, x2 = 0.139 | 772.6 ± 0.8
323.05 K, 4494 kPa, x2 = 0.139 | 773.2 ± 0.8
323.05 K, 5074 kPa, x2 = 0.139 | 773.9 ± 0.8
323.05 K, 5511 kPa, x2 = 0.139 | 774.5 ± 0.8
323.05 K, 6033 kPa, x2 = 0.139 | 775.2 ± 0.8
323.05 K, 7021 kPa, x2 = 0.139 | 776.4 ± 0.8
323.05 K, 7506 kPa, x2 = 0.6086 | 779.7 ± 2
323.05 K, 7514 kPa, x2 = 0.139 | 777.1 ± 0.8
323.05 K, 7703 kPa, x2 = 0.6086 | 780.7 ± 1.1
323.05 K, 7803 kPa, x2 = 0.6086 | 781.1 ± 1.5
